{"source": "patent US9566281B2", "about": "(Westfaelische Wilhelms-Universitaet, priority 2012, dated 2017)", "key": {"influenza A virus": {"system": "influenza A virus", "test": "Synergism of MEK inhibitor with Oseltamivir-carboxylate on A549 cells (combination index, CompuSyn)", "format": "cell-based"}, "panH1N1 (RB1)": {"system": "panH1N1 (RB1)", "format": "cell-based, influenza A virus"}, "[1]": {"system": "A/Mallard/Bavaria/01/2006 (MB1, H5N1)", "format": "cell-based, influenza A virus", "settings": "MDCK II, MOI 0.001, 24 h treatment, FIG. 6/7"}, "FPV": {"system": "FPV", "format": "cell-based"}, "colon carcinoma": {"system": "colon carcinoma", "settings": "oral administration, mouse model; cited from earlier work"}, "A/Anhui/1/2013 (H7N9)": {"system": "A/Anhui/1/2013 (H7N9)", "test": "microbe, parasite or virus in culture", "format": "cell-based, influenza A virus"}, "[2]": {"settings": "patients taking oseltamivir; cited from earlier work"}, "[3]": {"settings": "with Oseltamivir-carboxylate, ratio 1:1, A549"}, "[4]": {"settings": "with Oseltamivir-carboxylate, ratio 1:10, A549"}}, "note": "pEC50: −log10 of the molar value. Several values for one entry are separate records, joined by “and”; a condition that tells them apart may be missing. Identical values can stand only once. Like-named read-outs stand apart in the source and are kept apart here."}
{"molecule": "Cn1cnc2c(F)c(Nc3ccc(Br)cc3Cl)c(C(=O)NOCCO)cc21", "note": "[AZD-6244]", "values": [{"measurement": "CI value at ED75", "setting": "influenza A virus", "result": "0.2086 and 0.1616"}, {"measurement": "CI value at ED90", "setting": "influenza A virus", "result": "0.2962 and 0.2330"}, {"measurement": "CI value at ED95", "setting": "influenza A virus", "result": "0.3760 and 0.2993"}]}
{"molecule": "O=C(NOCC1CC1)c1ccc(F)c(F)c1Nc1ccc(I)cc1Cl", "note": "[CI-1040]", "values": [{"measurement": "antiviral potency", "setting": "panH1N1 (RB1)", "result": "potent"}, {"measurement": "antiviral potency in cell culture", "setting": "[1]", "result": "highly potent"}, {"measurement": "antiviral potency", "setting": "FPV", "result": "potent"}, {"measurement": "CI value at ED75", "setting": "influenza A virus; [3]", "result": 0.4010}, {"measurement": "CI value at ED90", "setting": "influenza A virus; [3]", "result": 0.3987}, {"measurement": "CI value at ED95", "setting": "influenza A virus; [3]", "result": 0.4412}]}
{"molecule": "CC(=O)Nc1cccc(-n2c(=O)n(C3CC3)c(=O)c3c(Nc4ccc(I)cc4F)n(C)c(=O)c(C)c32)c1", "note": "[GSK-1120212]", "values": [{"measurement": "CI value at ED75", "setting": "influenza A virus", "result": 0.4758}, {"measurement": "CI value at ED90", "setting": "influenza A virus", "result": 0.4648}, {"measurement": "CI value at ED95", "setting": "influenza A virus", "result": 0.4576}]}
{"molecule": "O=C(NOCC1CC1)c1ccc(F)c(F)c1Nc1ccc(I)cc1Cl", "note": "[PD184352, 2-(2-chloro-4-iodo-phenylamino)-N-cyclopropylmethoxy-3,4-difluoro-benzamide]", "values": [{"measurement": "growth of colon carcinoma", "setting": "colon carcinoma", "result": "efficiently inhibit"}]}
{"molecule": "O=C(NOC[C@H](O)CO)c1ccc(F)c(F)c1Nc1ccc(I)cc1F", "note": "[PD-0325901]", "values": [{"measurement": "antiviral potency", "setting": "panH1N1 (RB1)", "result": "potent"}, {"measurement": "antiviral potency in cell culture", "setting": "[1]", "result": "highly potent"}, {"measurement": "antiviral potency", "setting": "FPV", "result": "potent"}]}
{"molecule": "CCCS(=O)(=O)Nc1ccc(F)c(C(=O)c2c[nH]c3ncc(-c4ccc(Cl)cc4)cc23)c1F", "note": "[PLX-4032]", "values": [{"measurement": "antiviral potency", "setting": "A/Anhui/1/2013 (H7N9); A549, H7N9, FIGS. 13A and B", "result": "highly potent"}, {"measurement": "pEC50", "setting": "A/Anhui/1/2013 (H7N9); Influenza A virus, H7N9, A549, 24 h", "result": 4.92}, {"measurement": "CI value at ED75", "setting": "influenza A virus; [3]", "result": 0.3472}, {"measurement": "CI value at ED90", "setting": "influenza A virus; [3]", "result": 0.4332}, {"measurement": "CI value at ED95", "setting": "influenza A virus; [3]", "result": 0.5036}, {"measurement": "CI value at ED75", "setting": "influenza A virus; [4]", "result": 0.2305}, {"measurement": "CI value at ED90", "setting": "influenza A virus; [4]", "result": 0.2367}, {"measurement": "CI value at ED95", "setting": "influenza A virus; [4]", "result": 0.2413}]}
{"molecule": "oseltamivir", "values": [{"measurement": "patients experiencing nausea and vomiting", "setting": "[2]", "result": "10-15%"}]}
